Source: patent US7118921B1, “Incorporation and applications of biomolecular interactions within a carrier” (McMaster University, priority 1999, dated 2006)

System: melittin and intact BCaM:melittin complex
Format: binding, bovine

Q: How did the “Effect on emission wavelength and anisotropy of the intact complex or of melittin” value turn out when CN1CCN(CCCN2c3ccccc3Sc3ccc(C(F)(F)F)cc32)CC1 [TFP, trifluoperazine] was run?
A: Its value is “not affected”.

Q: What about the “Effect on intensity of melittin or the intact complex” value of the same compound?
A: The value was “large decrease in intensity”.
